Laboratory results taken from publication PMC6627698, “Redesigning Arenicin-1, an Antimicrobial Peptide from the Marine Polychaeta Arenicola marina, by Strand Rearrangement or Branching, Substitution of Specific Residues, and Backbone Linearization or Cyclization” (Marine Drugs, 2019).
Residues, ends and D or L forms follow the SMILES beside them.

Tests used:
[1] = tested on: P. aeruginosa c.i.; format: cell-based, Pseudomonas aeruginosa; settings: 18 h
Description: (§1) E. coli ML35p, Listeria monocytogenes EGD, methicillin-resistant Staphylococcus aureus (MRSA) ATCC 33591 were kindly provided by Prof. Robert Lehrer (University of California, Los Angeles, CA, USA); E. coli ATCC 25922, E. coli M15, Pseudomonas aeruginosa ATCC 27853, S. aureus ATCC 25923 were provided by Dr. Elena Ermolenko (Institute of Experimental Medicine, St-Petersburg, Russia); drug-resistant clinical isolates were provided by Prof. Gennadiy Afinogenov (Saint Petersburg State University, Russia); S. aureus 710A has been described previously. The following clinical isolates of bacteria were used: P.s aeruginosa resistant to aztreonam, ceftazidime, cefotaxime (obtained from the urine of a patient with cystitis), Acinetobacter baumannii resistant to meropenem (from an infected wound); Staphylococcus intermedius (from an infected wound caused by a dog bite) resistant to ciprofloxacin, cefuroxime, clindamycin, erythromycin, rifampin, gentamicin, benzylpenicillin, oxacillin.
(§2) This assay was applied to determine the MIC, according to the guidelines of the Clinical and Laboratory Standards Institute, using Mueller Hinton (MH) Broth. We prepared 2x stocks of peptides and serially diluted them in sterile PBS instead of Mueller Hinton Broth, so that the treatment of the bacteria with the peptides was carried out in a medium containing 50% of MH and 50% of PBS, as described. The overnight cultures of each strain were transferred to fresh MH media and further incubated to obtain a mid-logarithmic-growth-phase culture of bacteria. The absorbance of each bacterial suspension was measured at 620 nm, and bacteria were then diluted to approximately 2 × 10^5 CFU/mL. Then, 50 µL of the suspensions were mixed with 50 µL of the peptide dilutions in the wells of a microtiter plate (pre-treated for 1 h at 37 °C with 0.2% bovine serum albumin (BSA) in water, sterilized by filtration, to diminish the non-specific binding of the peptides to the plastic surfaces).

[2] = tested on: Staphylococcus aureus 710A; format: cell-based; settings: 18 h
Description: as §1, §2

[3] = tested on: Pseudomonas aeruginosa ATCC 27853; format: cell-based; settings: ATCC 27853, 18 h
Description: as §1, §2

[4] = tested on: Listeria monocytogenes EGD; format: cell-based; settings: 18 h
Description: as §1, §2

[5] = tested on: Escherichia coli ML35p; format: cell-based; settings: broth microdilution, 50% Mueller Hinton broth / 50% PBS, 18 h at 37 °C, median of 3–5 experiments in triplicates
Description: as §1, §2

[6] = tested on: Staphylococcus intermidius; format: cell-based, Staphylococcus intermedius; settings: 18 h
Description: as §1, §2

[7] = tested on: E. coli ML35p outer membrane; test: Outer membrane permeabilization assay (nitrocefin hydrolysis); format: cell-based, Escherichia coli; settings: peptide at 2 × MIC, 10 mM sodium phosphate buffer, 100 mM NaCl, pH 7.4, 37 °C, 486 nm
Method: Figure 5 Permeabilizing effect of arenicin-1 variants on E. coli ML35p outer and cytoplasmic membranes.
The E. coli ML35p outer membrane permeability was assessed by monitoring hydrolysis of the chromogenic β-lactamase substrate nitrocefin (3-(2,4-dinitrostyryl)-(6R,7R)-7-(2-thienyl acetamido)ceph-3-em-4-carboxylic acid) (Calbiochem-Novabiochem, San-Diego, CA, USA) by detection of the hydrolysis product at 486 nm. Inner membrane permeability was monitored by measuring the hydrolysis of o-nitrophenyl-β-D-galactoside (ONPG, Sigma, La Jolla, CA, USA) at 420 nm. The E. coli ML35p strain expresses a plasmid-encoded periplasmic β-lactamase; it constitutively expresses cytoplasmic β-galactosidase and lacks lactose permease. E. coli ML35p was maintained on trypticase soy agar plates containing […] of ampicillin per mL. The bacteria used for antimicrobial testing or membrane permeability assays were picked from a single colony, incubated in 50 mL of sterile Trypticase soy broth for 16 h at 37 °C, washed three times with 10 mM sodium phosphate buffer (pH 7.4), adjusted to an optical density at 620 nm of 1 (2.5 × 10^8 CFU/mL), and kept on ice until use. The assays were performed in 96-well microtiter plates that were monitored every minute with a SpectraMax 250 Microplate Spectrophotometer (Molecular Devices, Sunnyvale, CA, USA) using the SOFTmax PRO software supplied by the manufacturer. […]

[8] = tested on: set of Gram-negative and Gram-positive bacteria, including drug-resistant clinical isolates; format: cell-based; settings: 12 strains; median MICs used; MIC > 16 µM taken as 32 µM
Method: To obtain a global assessment of the effect on antimicrobial activity, the geometric mean of the MIC (G-MIC) was calculated, and from this, the overall improvement or impoverishment with respect to arenicin-1. In general, inverting the symmetry or decreasing the charge had detrimental effects.
The overall activity against a set of tested bacterial strains was determined by way of the commonly used geometric mean of measured MIC values. […] At the same time, the geometric mean can still discriminate antimicrobial agents showing minor variations in activity; in other words, it has a better “resolution” than the median MIC (MIC50). Some mathematical basics for choosing the geometric mean for antimicrobial activity comparison are further discussed in the Supplementary Chapter S3.

[9] = tested on: Acinetobacter baumanii c.i.; format: cell-based, Acinetobacter baumannii; settings: 18 h
Description: as §1, §2

[10] = tested on: MRSA ATCC 33591; format: cell-based, Staphylococcus aureus; settings: ATCC 33591, 18 h
Description: as §1, §2

[11] = tested on: S. aureus c.i.; format: cell-based, Staphylococcus aureus; settings: 18 h
Description: as §1, §2

[12] = tested on: S. aureus ATCC 25923; format: cell-based, Staphylococcus aureus; settings: ATCC 25923, 18 h
Description: as §1, §2

[13] = tested on: human erythroleukemia K-562 cells; format: cell-based; settings: 24 h
Method: The standard MTT ((3-(4,5-Dimethylthiazol-2-yl)-2,5-diphenyltetrazolium bromide) test was used for the examination of the cytotoxic activity of AMPs towards human erithroleukemia cells K-562. The cells were purchased from Biolot (Saint Petersburg, Russia) and were grown in RPMI 1640 medium (Biolot, Saint Petersburg, Russia) supplemented with glutamine and 10% FCS. Before the experiment, the culturing medium was replaced with serum-free RPMI 1640. Serial dilutions of the peptides in RPMI were plated in sterile 96-well microplates, and the target cells were dispensed to the microplates (10^5 cells/well in RPMI 1640). The plates were incubated for 24 h at 37 °C under 5% CO2. Cell-free media and cells incubated without peptides served as controls. Four hours before the incubation ended, MTT in PBS (5 mg/mL) was added to each well. After the incubation was stopped by adding isopropanol/ 0.04 M HCl, the optical density was measured at 540 nm, subtracting the background absorbance at 690 nm. Toxicity was determined by nonlinear regression analysis of the corresponding dose–response curves using the Sigma Plot 11 program to calculate the IC50 values (the concentration of the test substance that reduced the OD540 capacity by 50%).

[14] = tested on: E. coli ATCC 25922; format: cell-based, Escherichia coli; settings: ATCC 25922, 18 h
Description: as §1, §2

[15] = tested on: E. coli M15; format: cell-based, Escherichia coli; settings: M15, 18 h
Description: as §1, §2

SMILES	Minimal Inhibitory Concentrations (MIC) [1] [µM]	Minimal Inhibitory Concentrations (MIC) [2] [µM]	Minimal Inhibitory Concentrations (MIC) [3] [µM]	Minimal Inhibitory Concentrations (MIC) [4] [µM]	Minimal Inhibitory Concentrations (MIC) [5] [µM]	Minimal Inhibitory Concentrations (MIC) [6] [µM]	Capacity to permeabilize the outer membrane with respect to arenicin-1 [7]	G-MIC (geometric mean of all determined MICs) [8] [µM]	Minimal Inhibitory Concentrations (MIC) [9] [µM]	Minimal Inhibitory Concentrations (MIC) [10] [µM]	Minimal Inhibitory Concentrations (MIC) [11] [µM]	Minimal Inhibitory Concentrations (MIC) [12] [µM]	IC50 [13] [µM]	Minimal Inhibitory Concentrations (MIC) [14] [µM]	Minimal Inhibitory Concentrations (MIC) [15] [µM]
CC(C)C[C@@H]1NC(=O)[C@H](C(C)C)NC(=O)CNC(=O)[C@H](CCCCN)NC(=O)[C@H](C(C)C)NC(=O)[C@H](CCCCN)NC(=O)[C@H](C(C)C)NC(=O)[C@H](Cc2ccc(O)cc2)NC(=O)[C@H](C)NC(=O)[C@H](Cc2ccc(O)cc2)NC(=O)[C@H](C(C)C)NC(=O)[C@@H](NC(=O)[C@H](Cc2c[nH]c3ccccc23)NC(=O)[C@@H](N)CCCCN)CSSC[C@@H](C(=O)N[C@@H](Cc2c[nH]c3ccccc23)C(=O)O)NC(=O)[C@H](CCCCN)NC(=O)[C@H](CCCCN)NC(=O)[C@H](Cc2ccc(O)cc2)NC(=O)[C@H](CCCCN)NC(=O)[C@H](C(C)C)NC1=O [AR-K] (HELM PEPTIDE1{K.W.C.V.Y.A.Y.V.K.V.K.G.V.L.V.K.Y.K.K.C.W}$PEPTIDE1,PEPTIDE1,3:R3-20:R3$$$V2.0; N-terminus assumed)	2 to 4	2	1 to 2	2	1	4	improved capacity to permeabilize the outer membrane	1.9	1	2	4	2	7.7	2	1
CC(C)C[C@@H]1NC(=O)[C@H](C(C)C)NC(=O)CNC(=O)[C@H](CCCNC(=N)N)NC(=O)[C@H](C(C)C)NC(=O)[C@H](CCCNC(=N)N)NC(=O)[C@H](C(C)C)NC(=O)[C@H](Cc2ccc(O)cc2)NC(=O)[C@H](C)NC(=O)[C@H](Cc2ccc(O)cc2)NC(=O)[C@H](C(C)C)NC(=O)[C@@H]2CSSC[C@H](NC(=O)[C@H](CCCNC(=N)N)NC(=O)[C@H](CCCNC(=N)N)NC(=O)[C@H](Cc3ccc(O)cc3)NC(=O)[C@H](CCCNC(=N)N)NC(=O)[C@H](C(C)C)NC1=O)C(=O)N[C@@H](Cc1c[nH]c3ccccc13)C(=O)N[C@@H](CCCNC(=N)N)C(=O)N[C@@H](Cc1c[nH]c3ccccc13)C(=O)N2 [ARcycl] (HELM PEPTIDE1{R.W.C.V.Y.A.Y.V.R.V.R.G.V.L.V.R.Y.R.R.C.W}$PEPTIDE1,PEPTIDE1,3:R3-20:R3|PEPTIDE1,PEPTIDE1,1:R1-21:R2$$$V2.0)	2	2	1	2		4	improved capacity to permeabilize the outer membrane		4	4	4	2	16.2	2	2
